# According to ChEMBL document CHEMBL1158317, “Porrigenins A and B, novel cytotoxic and antiproliferative sapogenins isolated from Allium porrum” (J Nat Prod, 1997):
# Assays:
# Format in all cases: functional, cell-based
# [1] = test system: WEHI-164; assay: Antiproliferative activity against mouse WEHI164 cells after 72 hrs by MTT assay; conditions: WEHI-164, 72 h
# [2] = test system: P388; assay: Cytotoxicity against mouse P388 cells after 24 hrs by MTT assay; conditions: P388, 24 h
# [3] = test system: IGR-1; assay: Cytotoxicity against human IGR-1 cells after 24 hrs by MTT assay; conditions: IGR-1, 24 h
# [4] = test system: J774; assay: Antiproliferative activity against mouse J774 cells after 72 hrs by MTT assay; conditions: J774, 72 h
# [5] = test system: IGR-1; assay: Antiproliferative activity against human IGR-1 cells after 72 hrs by MTT assay; conditions: IGR-1, 72 h
# [6] = test system: P388; assay: Antiproliferative activity against mouse P388 cells after 72 hrs by MTT assay; conditions: P388, 72 h
# [7] = test system: J774; assay: Antiproliferative activity against mouse J774 cells after 48 hrs by MTT assay; conditions: J774, 48 h
# [8] = test system: P388; assay: Antiproliferative activity against mouse P388 cells after 48 hrs by MTT assay; conditions: P388, 48 h
# [9] = test system: IGR-1; assay: Antiproliferative activity against human IGR-1 cells after 48 hrs by MTT assay; conditions: IGR-1, 48 h
# [10] = test system: WEHI-164; assay: Antiproliferative activity against mouse WEHI164 cells after 48 hrs by MTT assay; conditions: WEHI-164, 48 h
# [11] = test system: J774; assay: Cytotoxicity against mouse J774 cells after 24 hrs by MTT assay; conditions: J774, 24 h
# [12] = test system: WEHI-164; assay: Cytotoxicity against mouse WEHI164 cells after 24 hrs by MTT assay; conditions: WEHI-164, 24 h
Structure (SMILES),IC50 [1],IC50 [2],IC50 [3],IC50 [4],IC50 [5],IC50 [6],IC50 [7],IC50 [8],IC50 [9],IC50 [10],IC50 [11],IC50 [12]
C[C@@H]1CC[C@@]2(OC1)O[C@H]1C[C@H]3[C@@H]4C[C@@H](O)[C@H]5C[C@@H](O)[C@@H](O)C[C@]5(C)[C@H]4CC[C@]3(C)[C@H]1[C@@H]2C [PORRIGENIN A],110 µg/mL,617 µg/mL,942 µg/mL,270 µg/mL,184 µg/mL,115 µg/mL,515 µg/mL,270 µg/mL,471 µg/mL,277 µg/mL,754 µg/mL,–
Sc1ncnc2nc[nH]c12 [MERCAPTOPURINE ANHYDROUS],2.7 µg/mL,37 µg/mL,51.7 µg/mL,0.5 µg/mL,1.1 µg/mL,0.3 µg/mL,3.6 µg/mL,2.1 µg/mL,12.3 µg/mL,42 µg/mL,61 µg/mL,83 µg/mL
C[C@@H]1CC[C@@]2(OC1)O[C@H]1C[C@H]3[C@@H]4C[C@@H](O)[C@H]5C[C@@H](O)[C@H](O)C[C@]5(C)[C@H]4CC[C@]3(C)[C@H]1[C@@H]2C [AGIGENIN],210 µg/mL,609 µg/mL,–,321 µg/mL,264 µg/mL,354 µg/mL,655 µg/mL,471 µg/mL,627 µg/mL,548 µg/mL,896 µg/mL,836 µg/mL
C[C@@H]1CC[C@@]2(OC1)O[C@H]1C[C@H]3[C@@H]4C[C@@H](O)[C@H]5C[C@@H](O)C(=O)C[C@]5(C)[C@H]4CC[C@]3(C)[C@H]1[C@@H]2C [PORRIGENIN B],92 µg/mL,837 µg/mL,823 µg/mL,51 µg/mL,45 µg/mL,74 µg/mL,111 µg/mL,185 µg/mL,330 µg/mL,344 µg/mL,552 µg/mL,655 µg/mL
